# Results from patent publication US20060074109A1, “Use of inhibitors of 24-hydroxylase in the treatment of cancer” (Sapphire Therapeutics, Inc., priority 2004, published 2006).
# Assays:
# [1] = target: T1, 24-hydroxylase (Homo sapiens, UniProt Q07973); settings: Kahraman et al., J. Med. Chem. 47:6854-6863 (2004); cited from earlier work
# T1 sequence (Q07973 36-514): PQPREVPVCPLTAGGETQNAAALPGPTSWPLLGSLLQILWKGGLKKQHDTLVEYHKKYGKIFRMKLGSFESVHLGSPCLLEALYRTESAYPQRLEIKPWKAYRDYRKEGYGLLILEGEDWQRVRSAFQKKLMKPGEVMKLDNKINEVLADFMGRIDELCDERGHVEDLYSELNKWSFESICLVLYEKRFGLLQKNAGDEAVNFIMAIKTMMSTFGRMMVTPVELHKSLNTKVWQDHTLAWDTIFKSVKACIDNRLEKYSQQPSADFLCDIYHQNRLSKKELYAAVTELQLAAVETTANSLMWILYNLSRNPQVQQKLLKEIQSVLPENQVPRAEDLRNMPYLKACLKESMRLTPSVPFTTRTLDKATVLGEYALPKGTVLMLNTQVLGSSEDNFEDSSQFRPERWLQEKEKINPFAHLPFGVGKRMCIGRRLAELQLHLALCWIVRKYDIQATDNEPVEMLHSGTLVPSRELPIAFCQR
# [2] = test system: RARγ mRNA in SK-OV-3 cells; experiment: RPA and quantitative RT-PCR of receptor mRNA; format: cell-based, human; settings: 24 hour
# Excerpt: (§1) Briefly, ^32P-labelled ([α-^32P]UTP, Amersham Biosciences, Buckinghamshire, UK) RNA-probes were synthesised using in vitro transcription reaction (In vitro transcription reaction kit, Pharmingen, San Diego, Calif.) using two different template sets.
# (§2) RPLP0 was used as reference gene.
# [3] = test system: RARα mRNA in SK-OV-3 cells; experiment: RPA and quantitative RT-PCR of receptor mRNA; format: cell-based, human; settings: 24 hour
# Excerpt: as §1, §2
# [4] = test system: RARγ mRNA in UT-OC-1 cells; experiment: RPA and quantitative RT-PCR of receptor mRNA; format: cell-based, human; settings: 24 hour
# Excerpt: as §1, §2
# [5] = test system: VDR mRNA in UT-OC-1 cells; experiment: RPA and quantitative RT-PCR of receptor mRNA; format: cell-based, human; settings: 24 hour
# Excerpt: as §1, §2
# [6] = test system: OVCAR-3 cells; experiment: Cell growth assay, crystal violet, 11 days; format: cell-based, human; settings: 11 days
# Experimental: (§3) The human ovarian adenocarcinoma cell line, OVCAR-3 (ATCC, Manassas, Va.) was maintained, as recommended by the supplier, in RPMI 1640 medium (Sigma Aldrich, St. Louis, Mo.) supplemented with 10% FBS, 10 μg/ml insulin, 0.25% glucose and antibiotics (100 IU/ml penicillin, 100 μg/ml streptomycin). Human ovarian adenocarcinoma cell lines UT-OC-1, UT-OC-2, UT-OC-3, UT-OC-4, UT-OC-5 (Grenman, S., Engblom, P., Rantanen, V., Klemi, P. and Isola, J., “Cytogenetic Characterization of Five New Ovarian Carcinoma Cell Lines,” Acta Obstet. Gynecol. Scand., 76:83 (1997)) and SK-OV-3 and a human keratinocyte cell line HaCaT were grown in DMEM (Sigma Aldrich) with 10% FBS and antibiotics (100 IU/ml penicillin, 100 μg/ml streptomycin), and monkey kidney COS cells were maintained in DMEM/F12 (Sigma Aldrich) with 5% FBS. All cell lines were kept at 37° C. in a humidified 95% air/5% CO2 incubator.
# (§4) When OVCAR-3 cells were on the logarithmic growth phase (70% confluent) the growth assay was started. For cell growth assay, 2,000 cell/200 μl/well were plated on 96-well culture plates. […] Ethanol was used as a vehicle, and it was also included in the control. The medium containing ethanol vehicle and/or hormones were changed to a fresh one every third day. Cell growth samples were taken 0, 1, 3, 5, 7, 9 and 11 days after the treatment.
# (§5) Relative cell numbers were quantified as described previously (Kueng W, Silber E, Eppenberger U. Quantification of cells cultured on 96-well plates. Anal. Biochem., 182:16-9 (1989)). Cells were fixed on the bottom of the wells by addition of 10 μl of 11% glutaraldehyde solution in 0.1% phosphate buffer to 100 μl of medium. The plate was shaken 500 cycles/min for 15 min, washed 3 times by submersion in de-ionised water and air-dried. Fixed cells were stained with 0.1% solution of crystal violet dissolved in de-ionised water. After 20 min incubation, excess dye was removed by carefully washing with de-ionised water. The plate was air-dried prior to a bound dye solubilisation in 100 μl of 10% acetic acid. Relative cell number was given as absorbance units by measuring the optical density (590 nm) from each well using Victor 1420 multilabel counter (Wallac, Turku, Finland). Six determinations were used to calculate the mean optical density ±SD in each concentration at each time point. The absorbance value of day 0 (an overnight culture of 2,000 cells/well) was set as 0 by subtracting it from each value obtained from adjacent time-point measurements (days 1-11), and based on these values growth curves were created. Experiments were repeated 3-5 times. Day 11 was used to compare the effect of hormone treatments and 24OHase inhibitor. Statistical analyses were done using Student's t-test.
# The cell growth response was determined as described in Experiment I. Briefly, cells were treated with indicated hormone concentrations or combinations of hormone and 24OHase inhibitor (VID400) for 11 days. The growth medium and hormones were changed to a fresh one every third day. After the treatment period, cells were fixed, stained with crystal violet, and the optical density (590 nm) was determined. The cell growth is presented as a percentage of ethanol-treated cells. The values represent the mean of 3 separate experiments ±SD. (*p<0.05, **p<0.001, ***p<0.0001, Student's t-test).
# (§6) Cell growth samples were obtained after 11 days treatment.
# [7] = test system: UT-OC-4 cells; experiment: Cell growth assay, crystal violet, 11 days; format: cell-based, human; settings: 11 days
# Experimental: as §3, §4, §5, §6
# [8] = test system: UT-OC-1 cells; experiment: Cell growth assay, crystal violet, 11 days; format: cell-based, human; settings: 11 days
# Experimental: as §3, §4, §5, §6
# [9] = test system: 24OHase mRNA in ovarian cancer cell lines; experiment: RPA and RT-PCR of 24OHase induction, all cell lines; format: cell-based, human; settings: 100 nM, 24 h, every cell line
# Excerpt: as §1, §2
# [10] = test system: 24OHase mRNA in UT-OC-5 cells; experiment: RPA and RT-PCR of 24OHase induction; format: cell-based, human; settings: 24 h
# Excerpt: as §1, §2
# [11] = test system: 24OHase mRNA in OVCAR-3 cells; experiment: Quantitative RT-PCR of 24OHase mRNA; format: cell-based, human; settings: 100 nM
# Experimental: Ethanol was used as a vehicle, and it was also added to the control cells. For RNA extraction, the cells were collected 4, 6 and 24 hr after the treatment with vitamin D compound or vehicle. RNA extractions were done with TRIZOL reagent (GIBCO Invitrogen Corporation, Paisley, UK). The integrity of RNA samples was confirmed on gel electrophoresis. […] The reactions for 24-hydroxylase were performed in the LightCycler instrument (Roche Diagnostics, Basel, Switzerland) from 300 ng total RNA. PBGD (human porphobilinogendeaminase) mRNA was used as an […] control. […] Nucleotides, Tth DNA polymerase (DNA polymerase and reverse transcriptase activity), SYBR Green I and reaction buffer were included in the LightCycler-RNA Master SYBR Green I kit (Roche Diagnostics). […] Cell. […] Detection of fluorescent product was performed at the end of the extension step of each cycle. To verify the specific products, melting curve analysis and gel electrophoresis were done. The data were quantified by the Fit Points method with LightCycler Data Analysis software. […] Hormone treatments and RT-PCR were done twice.
# [12] = test system: RARβ mRNA in OVCAR-3 cells; experiment: RPA and quantitative RT-PCR of receptor mRNA; format: cell-based, human; settings: 10 μM, 24 hour
# Excerpt: as §1, §2
# [13] = test system: RARβ mRNA in SK-OV-3 cells; experiment: RPA and quantitative RT-PCR of receptor mRNA; format: cell-based, human; settings: 10 μM, 24 hour
# Excerpt: as §1, §2
# [14] = test system: AIB1 mRNA in OVCAR-3 cells; experiment: RPA of nuclear receptor coregulator mRNA; format: cell-based, human; settings: 10 μM, 24 hour
# Excerpt: Briefly, ^32P-labelled ([α-^32P]UTP, Amersham Biosciences, Buckinghamshire, UK) RNA-probes were synthesised using in vitro transcription reaction (In vitro transcription reaction kit, Pharmingen, San Diego, Calif.) using two different template sets. […] A coregulator set produces probes for NCoR (360 bp), SMRT (310 bp), pCAF (267 bp), CBP (234 bp), TIF2 (200 bp), AIB1 (179 bp), SRC-1a (145 bp) and −1e (160 bp) and p300 (127 bp); 18S (80 bp) was used as loading control with each probe set.
# [15] = test system: SK-OV-3 cells; experiment: Cell growth assay, crystal violet, 11 days; format: cell-based, human; settings: alone (1 or 10 μM)
# Experimental: as §3, §4, §5, §6
smiles,measurement,setting,value
C=C1/C(=C\C=C2/CCCC3(C)C2CC[C@@H]3[C@H](C)CCS(=N)(=O)c2ccccc2)C[C@@H](O)C[C@@H]1O (stereo partly drawn) [Formula V],inhibitory potency for 24-hydroxylase,[1],most potent compound
C=C1/C(=C\C=C2/CCC[C@]3(C)[C@@H]([C@H](C)/C=C/C=C/C(O)(CC)CC)CC[C@@H]23)C[C@@H](O)C[C@@H]1O [EB 1089],increase of RARγ compared to control,[2]; 100 nM,51±7%
same,RARα expression,[3]; 100 nM,134±10 % of control
same,up regulation of RARγ compared to control,[4]; 100 nM,47±7%
same,VDR expression,[5]; 100 nM,47±8 % of control
same,inhibition at 0.001 µM,"[6]; Homo sapiens, OVCAR-3, 264 h, 1 nM, read-out: inhibited growth compared to the control",73%
same,inhibition at 0.1 µM,"[6]; Homo sapiens, OVCAR-3, 264 h, 100 nM, read-out: inhibited growth compared to the control",84%
same,effect on cell proliferation,"[6]; alone (10 or 100 nM), Experiment V",markedly inhibited the proliferation
same,effect on cell growth,[7]; 100 nM alone,did not restrain cell growth
same,effect on cell growth,[8]; 100 nM alone,did not inhibit the cell growth
same,"induction of 24OHase expression compared with 1,25(OH)2D3",[9],more effective in inducing 24OHase expression
same,"24OHase induction relative to 100 nM 1,25(OH)2D3",[10],more than two-fold stronger inducer
same,induction of 24OHase mRNA expression,[11]; 6 hr treatment,600 fold
same,induction of 24OHase mRNA expression,[11]; 24 hr treatment,"1,000 fold"
"CC1=C(/C=C/C(C)=C\C=C\C(C)=C\C(=O)O)C(C)(C)CCC1 [9-CRA, 9-cis retinoic acid]",RARβ expression,[12],276±68 % of control
same,increase of RARγ compared to control,[2]; 10 μM,119±52%
same,RARα expression,[3]; 10 μM,195±1 % of control
same,up regulation of RARγ compared to control,[4]; 10 μM,44±15%
same,VDR expression,[5]; 10 μM,58±25 % of control
same,RARβ expression,[13],345±17 % of control
same,AIB1 expression,[14],171 (±5) % of ethanol-treated control
same,effect on cell growth,[15],inhibited the growth of SK-OV-3 cells
same,effect on cell growth,[7]; 10 μM alone,inhibited UT-OC-4 cell growth
same,effect on cell growth,[8]; 10 μM alone,inhibited cell growth with equal magnitude
